Results on nine compounds are retold here after PubChem BioAssay (NCI).

Test in all cases: NCI tumour cell line growth inhibition, 48 h
Assay [1] deals with A498 renal.
Assay [2] has as its system A549 NSCLC.
For assay [3], the system named is DU-145 prostate.
For assay [4], the system named is HS 578T breast.
Assay [5] relates to MOLT-4 leukemia.
Assay [6] has as its system OVCAR-4 ovarian.
Assay [7] concerns PC-3 prostate.
The subject of assay [8] is SW-620 colon.
Assay [9] has as its system UACC-62 melanoma.
Assay [10] relates to SR leukemia.

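Test compounds were applied to cells in 96-well plates for 48 hours at 5 doses. The concentration for 50% growth inhibition is given as GI50. TGI marks complete inhibition of growth.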 A value given as a limit tells only on which side of the number the result lay.

With `C=CCOc1cc(NC(=S)c2ccoc2C)ccc1OC`, the TGI in [1], in [2], in assay [3], in assay [4], in assay [5] and in [6] was over 100 µM throughout. Moreover, the TGI in assay [7], in assay [8] and in assay [9] was over 100 µM each time.

Consider `CCOC(=O)N1CCN(/[N+]([O-])=N/Oc2ccc([N+](=O)[O-])cc2[N+](=O)[O-])CC1`, for which the GI50 is 17.5 µM in assay [1]; 3.63 µM in [2]; 4.73 µM in assay [3]; 5.84 µM in assay [4]; 0.482 µM in assay [5]; 0.438 µM in assay [6]. Moreover, the GI50 in assay [7] was 3.48 µM; in [8], 0.434 µM; in assay [9], 2.65 µM. Moreover, the TGI in assay [1] was determined as 35.6 µM; in [2] it was 14.1 µM; in assay [3] it was 19.2 µM; in assay [4], 37.4 µM; in assay [6], 1.78 µM; in assay [7] it was 16.7 µM. Further, the TGI came to 35.7 µM in assay [8] and 12.8 µM in assay [9].

In the case of `CC1=C(c2ccccc2)C(c2ccccc2)=C(c2ccccc2)C2(c3ccccc3)C(=O)C(C)CN12` (stereo not drawn), the TGI in assay [1] is over 100 µM; in assay [2], over 100 µM; in assay [5], over 100 µM; in assay [6] it was 50.5 µM; in assay [10], over 100 µM; in [8], over 100 µM. The TGI in assay [9] is over 100 µM.

Turning to `O=C(O)CCCSC(=O)Nc1ccc(N=Nc2ccccc2)cc1`, the TGI in assay [1], in [2], in [5], in [6], in [10] and in [8] was over 100 µM in each case. Moreover, the TGI in assay [9] is over 100 µM.

Consider `CC(C)=CC1C[C@H](C2CC=C3C2(C)CCC2[C@@]3(C)C(=O)CC3[C@]2(C)C=CC(=O)[C@]3(C)CO)CO1` (stereo partly drawn), for which the TGI was 23.2 µM in assay [1]; 52.4 µM in assay [2]; 8.43 µM in assay [5]; 41.3 µM in assay [6]; 10.8 µM in assay [10]; over 31.7 µM in assay [8]. The compound also showed a TGI in assay [9] of 31 µM.

For `COC(=O)CC1C[C@H](C#N)N(C(=O)c2ccccc2)C[C@@H]1CC[N+](=O)[O-]` (stereo partly drawn), the TGI in [1], in assay [2], in assay [5], in assay [6], in [10] and in [8] was over 100 µM in each case. The compound further had a TGI in assay [9] of over 100 µM.

On to `OC(Cc1ccncc1)C(Cl)(Cl)Cl` (stereo not drawn), for which the GI50 in assay [2] is over 100 µM; in assay [3], over 100 µM; in assay [4], over 100 µM; in assay [5] it was 0.0988 µM; in assay [6], over 100 µM; in [7] it was 21.8 µM. Besides, the GI50 in assay [8] and in assay [9] was over 100 µM in each case. The TGI in assay [2], in assay [3], in assay [4], in [5], in [6] and in assay [7] was over 100 µM throughout. Moreover, the TGI in assay [8] and in assay [9] was over 100 µM each time.

Regarding `O=C(c1ccccc1)c1ccccc1-c1ccccc1`, the GI50 in assay [1] was 2.08 µM; in assay [2], 4.87 µM; in [3], 3.36 µM; in [4], 1.58 µM; in assay [6], 18.7 µM; in [7], 3.67 µM. Moreover, the GI50 in assay [8] is 1.54 µM; in [9], 4.43 µM. The TGI is 15.6 µM in [1]; over 100 µM in [2]; 38.2 µM in assay [3]; 10.2 µM in assay [4]; over 100 µM in [6]; over 100 µM in assay [7]. Further, the TGI in assay [8] and in [9] was over 100 µM each time.

Take `CCOC(=O)/C(C=Nc1ccc(-c2nc3ccccc3[nH]2)cc1)=C(/C)O`: the GI50 was 12 µM in [2]; 10.1 µM in assay [3]; 11.4 µM in assay [4]; 27.2 µM in assay [7]; 11.7 µM in assay [8]; 8.59 µM in assay [9]. In addition, the TGI in [2] was 29.9 µM; in assay [3], 33.3 µM; in [4] it was 30.5 µM; in assay [7] it was over 50 µM; in assay [8] it was 22.7 µM; in [9], 17.6 µM.
